Source: patent US20240124504A1, “AROMATIC HETEROCYCLIC COMPOUND, AND PHARMACEUTICAL COMPOSITION AND APPLICATION THEREOF” (GT APEIRON THERAPEUTICS LIMITED, priority 2020, published 2024)

Key:
[1] = target: CDK7/cyclinH/MAT1 complex (Homo sapiens, UniProt P50613); test: In-vitro enzymatic inhibitory activity testing, CDK7 inhibition assay (Caliper EZ Reader II); assay type: biochemical; conditions: CDK7/cyclinH/MAT1 6 nM, 180 min at 27° C.
Summary of the method: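 Enzyme preincubated 10 min with compound, then peptide substrate plus ATP added in 80 mM MES pH 6.5, 10 mM MgCl2 buffer; 180 min at 27 °C, stopped with EDTA.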

[2] = target: CDK2/cyclinE1 complex (Homo sapiens, UniProt P24941); test: In-vitro enzymatic inhibitory activity testing, CDK2 inhibition assay (Caliper EZ Reader II); assay type: biochemical; conditions: CDK2/cyclinE1 0.5 nM, 180 min at 27° C.
Summary of the method: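 CDK2/cyclinE1 (0.5 nM) phosphorylated 5-FAM-CDK7tide (2 μM) in MES buffer pH 6.5 with MgCl2, Tween 20 and BSA. Substrate and product were separated electrophoretically on a Caliper EZ Reader II. IC50 values came from nonlinear dose-response fits.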

[3] = target: CDK9/cyclinT1 complex (Homo sapiens, UniProt P50750); test: In-vitro enzymatic inhibitory activity testing, CDK9 inhibition assay (Caliper EZ Reader II); assay type: biochemical; conditions: CDK9/cyclinT1 8 nM, 180 min at 27° C.
CDK9/cyclinT1 complex, sequence (P50750 whole entry, species assumed): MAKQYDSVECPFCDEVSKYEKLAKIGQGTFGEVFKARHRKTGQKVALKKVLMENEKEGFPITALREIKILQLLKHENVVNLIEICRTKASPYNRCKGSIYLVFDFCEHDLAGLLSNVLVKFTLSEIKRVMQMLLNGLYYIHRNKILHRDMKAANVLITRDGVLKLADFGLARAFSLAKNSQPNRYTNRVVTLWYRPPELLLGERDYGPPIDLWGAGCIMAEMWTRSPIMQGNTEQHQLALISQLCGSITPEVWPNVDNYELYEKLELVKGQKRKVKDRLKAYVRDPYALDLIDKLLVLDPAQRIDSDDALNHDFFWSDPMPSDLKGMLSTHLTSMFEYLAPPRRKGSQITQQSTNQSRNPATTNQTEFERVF
CDK9/cyclinT1 complex, sequence (O60563 whole entry partner, species assumed): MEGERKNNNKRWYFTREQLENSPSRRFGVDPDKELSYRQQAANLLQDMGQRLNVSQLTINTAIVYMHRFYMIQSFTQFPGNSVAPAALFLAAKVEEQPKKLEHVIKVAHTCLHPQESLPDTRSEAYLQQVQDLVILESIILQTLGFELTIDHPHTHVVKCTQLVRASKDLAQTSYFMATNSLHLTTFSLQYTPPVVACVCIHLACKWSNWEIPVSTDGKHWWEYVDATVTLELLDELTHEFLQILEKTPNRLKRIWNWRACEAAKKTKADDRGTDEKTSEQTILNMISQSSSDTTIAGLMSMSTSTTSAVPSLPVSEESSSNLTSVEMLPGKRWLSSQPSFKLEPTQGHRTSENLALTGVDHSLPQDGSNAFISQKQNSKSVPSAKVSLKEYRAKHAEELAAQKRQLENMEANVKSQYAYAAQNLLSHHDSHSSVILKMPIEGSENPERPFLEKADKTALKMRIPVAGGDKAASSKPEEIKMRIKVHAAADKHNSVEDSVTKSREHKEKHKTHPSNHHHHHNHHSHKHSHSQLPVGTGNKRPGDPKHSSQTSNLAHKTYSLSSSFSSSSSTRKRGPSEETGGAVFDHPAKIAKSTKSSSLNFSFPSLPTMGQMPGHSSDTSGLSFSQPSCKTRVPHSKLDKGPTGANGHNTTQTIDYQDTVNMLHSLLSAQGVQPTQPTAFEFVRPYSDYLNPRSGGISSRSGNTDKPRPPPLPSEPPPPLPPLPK
Summary of the method: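 Phosphorylated and unphosphorylated fluorescent peptide were resolved by mobility-shift electrophoresis, with IC50 taken from a nonlinear regression of dose-response data. Reactions ran 180 min at 27 °C in MES buffer pH 6.5 with MgCl2, after 10 min enzyme–compound preincubation, using 8 nM CDK9/cyclinT1 and 5-FAM-CDK9tide.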

[4] = target: T1, CDK12 (aa686-1082)/cyclinK complex (Homo sapiens, UniProt Q9NYV4); test: In-vitro enzymatic inhibitory activity testing, CDK12 inhibition assay (Caliper EZ Reader II); assay type: biochemical; conditions: CDK12/cyclinK 50 nM, 180 min at 27° C.; read-out: CDK12 IC50
T1 construct: A CDK12 (aa686-1082)/cyclinK complex (50 nM)
T1 sequence (Q9NYV4 686-1082, species assumed): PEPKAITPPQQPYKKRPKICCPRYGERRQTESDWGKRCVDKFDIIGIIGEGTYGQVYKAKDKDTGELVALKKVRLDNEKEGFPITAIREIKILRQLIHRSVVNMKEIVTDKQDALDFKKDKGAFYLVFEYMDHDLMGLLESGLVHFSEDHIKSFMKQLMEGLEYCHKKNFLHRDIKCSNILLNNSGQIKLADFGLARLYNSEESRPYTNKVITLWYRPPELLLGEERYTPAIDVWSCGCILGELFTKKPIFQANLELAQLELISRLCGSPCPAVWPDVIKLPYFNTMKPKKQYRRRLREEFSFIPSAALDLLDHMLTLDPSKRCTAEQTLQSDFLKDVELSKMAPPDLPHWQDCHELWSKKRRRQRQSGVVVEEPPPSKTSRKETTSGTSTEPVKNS
T1 sequence (O75909 whole entry partner, species assumed, the tested form may be a part): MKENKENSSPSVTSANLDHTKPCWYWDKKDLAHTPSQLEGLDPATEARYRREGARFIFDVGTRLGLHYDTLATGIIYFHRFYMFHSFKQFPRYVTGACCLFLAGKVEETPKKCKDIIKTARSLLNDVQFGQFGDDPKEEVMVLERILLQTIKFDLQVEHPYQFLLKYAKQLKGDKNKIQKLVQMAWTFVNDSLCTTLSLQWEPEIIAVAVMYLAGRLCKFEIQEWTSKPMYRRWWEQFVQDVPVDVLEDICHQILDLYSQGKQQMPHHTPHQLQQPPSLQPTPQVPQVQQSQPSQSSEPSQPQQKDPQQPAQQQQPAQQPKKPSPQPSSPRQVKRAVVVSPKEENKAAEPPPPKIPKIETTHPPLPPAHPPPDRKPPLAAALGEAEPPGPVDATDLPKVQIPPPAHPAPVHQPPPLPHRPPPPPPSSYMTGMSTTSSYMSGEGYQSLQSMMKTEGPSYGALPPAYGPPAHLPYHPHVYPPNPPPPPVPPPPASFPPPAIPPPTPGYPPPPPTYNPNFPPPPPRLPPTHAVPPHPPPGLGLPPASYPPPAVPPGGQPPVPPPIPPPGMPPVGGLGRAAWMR
Summary of the method: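 CDK12 (aa686-1082)/cyclinK complex at 50 nM was pre-incubated with compound for 10 min, then reacted 180 min at 27° C with ATP and 2 μM 5-FAM-CDK9tide in pH 6.5 MES buffer with 10 mM MgCl2. Reactions were EDTA-quenched and product resolved electrophoretically; IC50 from nonlinear curve fit.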

[5] = test system: human breast cancer cells HCC70; test: Cell biological activity detection (CyQuant, 72 hours), HCC70; assay type: cell-based; conditions: Homo sapiens, HCC70, 72 h, incubation for 72 hours
Procedure: (§1) A2780 and HCC70 cells were subjected to trypsin digestion treatment, and cell suspensions were respectively transferred to 15 mL centrifuge tubes and centrifuged for 5 min at […]) rpm; supernatant was discarded, and resuspension was carried out in a fresh medium (RPMI 1640+10% FBS), after counting, cells were seeded into a 384-well plate at 2000/well (50 μL of 1640+10% FBS medium was added to the 2nd column and the 23rd column of the 384-well plate, and 50 μL of DPBS was added to the surrounding wells). Incubation was carried out overnight in an incubator (37° C., 5% CO2).
(§2) The compound was added to the well plates the next day. The compound had the highest concentration of 10 μM and was diluted at 1:4, and there were a total of 9 concentrations; and a positive compound Paclitaxel had the highest concentration of 1 μM and was diluted at 1:3, and there were a total of 9 concentrations. The DMSO content in each well was unified to 0.2%. The cell plates were centrifuged for 30 seconds at 800 rpm and placed in an incubator (37° C., 5% CO2) for incubation for 72 hours. On the fourth day, a Cyquant reagent (3×) was formulated according to kit instructions, and formulation was carried out for each 384-well plate according to the following proportions: DPBS 11.568 mL, CyQuant®? Direct nucleic acid stain 72 μL, and CyQuant® Direct background suppressor 360 μL. After uniform mixing, the reagent was placed at room temperature for further use. The cell plates were taken out and equilibrated for 30 min at room temperature, and 25 μL of the Cyquant reagent (3×) per well was dispensed into the cells of the 384-well plates by Multi-drop, and incubation was carried out for more than 60 minutes at 37° C. Acumen plate reading (Acumen setting: an excitation wavelength of 488 nm). IC50 results were analyzed by XLFIT5 from IDBS Company.

[6] = test system: ovarian cancer A2780; test: Cell biological activity detection (CyQuant, 72 hours), A2780; assay type: cell-based, human; conditions: Homo sapiens, A2780, 72 h, A2780 cells, incubation for 72 hours
Procedure: as §1, §2

CDK7/cyclinH/MAT1 complex, sequence (P50613 whole entry, species assumed): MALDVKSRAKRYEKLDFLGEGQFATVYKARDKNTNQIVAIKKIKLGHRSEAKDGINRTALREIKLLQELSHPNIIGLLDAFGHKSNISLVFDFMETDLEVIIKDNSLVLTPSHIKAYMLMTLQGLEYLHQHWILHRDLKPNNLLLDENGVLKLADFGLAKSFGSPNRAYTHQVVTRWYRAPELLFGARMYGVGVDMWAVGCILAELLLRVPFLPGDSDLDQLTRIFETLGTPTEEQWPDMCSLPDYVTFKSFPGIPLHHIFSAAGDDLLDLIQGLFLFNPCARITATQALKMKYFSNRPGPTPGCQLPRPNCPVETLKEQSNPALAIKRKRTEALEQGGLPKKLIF
CDK7/cyclinH/MAT1 complex, sequence (P51946 whole entry partner, species assumed): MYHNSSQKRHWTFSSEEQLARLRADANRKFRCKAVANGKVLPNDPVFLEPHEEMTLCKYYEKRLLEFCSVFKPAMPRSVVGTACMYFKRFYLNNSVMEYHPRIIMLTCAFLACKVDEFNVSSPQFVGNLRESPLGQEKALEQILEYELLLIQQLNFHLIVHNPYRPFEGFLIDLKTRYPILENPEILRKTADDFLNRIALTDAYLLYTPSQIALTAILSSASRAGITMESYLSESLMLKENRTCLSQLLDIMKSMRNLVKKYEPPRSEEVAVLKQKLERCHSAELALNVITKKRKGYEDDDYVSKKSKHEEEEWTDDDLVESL
CDK7/cyclinH/MAT1 complex, sequence (P51948 whole entry partner, species assumed): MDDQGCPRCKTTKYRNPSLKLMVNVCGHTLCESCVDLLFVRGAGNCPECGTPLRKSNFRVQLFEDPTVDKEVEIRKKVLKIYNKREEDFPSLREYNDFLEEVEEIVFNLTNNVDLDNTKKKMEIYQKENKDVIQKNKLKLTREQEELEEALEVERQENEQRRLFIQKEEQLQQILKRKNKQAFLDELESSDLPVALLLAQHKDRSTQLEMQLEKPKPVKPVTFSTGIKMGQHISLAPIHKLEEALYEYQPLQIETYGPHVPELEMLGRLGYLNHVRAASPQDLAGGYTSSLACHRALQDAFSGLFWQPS

Row | SMILES | IC50 [1] [µM] | IC50 [2] [µM] | IC50 [3] [µM] | IC50 [4] [µM] | IC50 [5] [µM] | IC50 [6] [µM]
1 | CP(C)(=O)c1cccc2c(-c3nc(Nc4cn[nH]c4)ncc3C(F)(F)F)c[nH]c12 [Compound 84, (3-(2-((1H-pyrazol-4-yl)amino)-5-(trifluoromethyl)pyrimidin-4-yl)-1H-indole-7-yl)dimethylphosphine oxide] | < 0.02 | 0.02 to 0.2 | 5 to 50 | 0.2 to 5 | < 0.02 | < 0.02
2 | FC(F)(F)c1cnc(NC2CCCNCC2)nc1-c1c[nH]c2nc(N3CCOCC3)ccc12 (stereo not drawn) [Compound 47, N-(4-(6-morpholinyl-1H-pyrrolo[2,3-b]pyridin-3-yl)-5-(trifluoromethyl)pyrimidin-2-yl)azepan-4-amine] | 0.02 to 0.2 | 5 to 50 | 5 to 50 | 5 to 50 | 0.2 to 5 | 0.2 to 5
3 | FC(F)(F)c1cnc(NC2COC23CNC3)nc1-c1c[nH]c2nc(N3CCOCC3)ccc12 (stereo not drawn) [Compound 58, N-(4-(6-morpholinyl-1H-pyrrolo[2,3-b]pyridin-3-yl)-5-(trifluoromethyl)pyrimidin-2-yl)-1-oxa-6-azaspiro[3.3]heptan-3-amine] | 0.02 to 0.2 | 5 to 50 | > 50 | > 50 | 0.02 to 0.2 | 0.2 to 5
4 | CP(C)(=O)c1cccc2c(-c3nc(NC[C@H]4C[C@H]4CO)ncc3C(F)(F)F)c[nH]c12 [Compound 141, (3-(2-((((1S,2R)-2-(hydroxymethyl)cyclopropyl)methyl)amino)-5-(trifluoromethyl)pyrimidin-4-yl)-1H-indole-7-yl)dimethylphosphine oxide] | < 0.02 | 0.2 to 5 | > 50 | > 50 | 0.02 to 0.2 | 0.02 to 0.2
5 | FC(F)(F)c1cnc(NC2COC3(CCNCC3)C2)nc1-c1c[nH]c2nc(N3CCOCC3)ccc12 (stereo not drawn) [Compound 51, N-(4-(6-morpholinyl-1H-pyrrolo[2,3-b]pyridin-3-yl)-5-(trifluoromethyl)pyrimidin-2-yl)-1-oxa-8-azaspiro[4.5]decan-3-amine] | 0.2 to 5 | 5 to 50 | 5 to 50 | 5 to 50 | 0.2 to 5 | 0.2 to 5
6 | C[C@@H](CO)Nc1ncc(Br)c(-c2c[nH]c3c(P(C)(C)=O)cccc23)n1 [Compound 177, (S)-(3-(5-bromo-2-((1-hydroxypropan-2-yl)amino)pyrimidin-4-yl)-1H-indole-7-yl)dimethylphosphine oxide] | < 0.02 | 0.2 to 5 | 5 to 50 | 5 to 50 | < 0.02 | < 0.02
7 | CP(C)(=O)c1cccc2c(-c3nc(N[C@H]4CC[C@H](N)C4)ncc3C(F)(F)F)c[nH]c12 [Compound 81] | < 0.02 | 0.2 to 5 | 0.2 to 5 | 0.2 to 5 | < 0.02 | < 0.02
8 | CC1(C)COCC(Nc2ncc(C(F)(F)F)c(-c3c[nH]c4nc(C#N)ccc34)n2)CN1 (stereo not drawn) [Compound 62, 3-(2-((3,3-dimethyl-1,4-oxazepan-6-yl)amino)-5-(trifluoromethyl)pyrimidin-4-yl)-1H-pyrrolo[2,3-b]pyridine-6-carbonitrile] | 0.02 to 0.2 | > 50 | > 50 | 5 to 50 | 0.2 to 5 | 0.2 to 5
9 | FC(F)(F)c1cnc(NC2CCC23CNC3)nc1-c1c[nH]c2nc(N3CCOCC3)ccc12 (stereo not drawn) [Compound 39, N-(4-(6-morpholinyl-1H-pyrrolo[2,3-b]pyridin-3-yl)-5-(trifluoromethyl)pyrimidin-2-yl)-2-azaspiro[3.3]heptan-5-amine] | < 0.02 | 5 to 50 | 5 to 50 | 5 to 50 | 0.02 to 0.2 | 0.02 to 0.2
10 | CP(C)(=O)c1cccc2c(-c3nc(NCC4(O)CC4)ncc3C(F)(F)F)c[nH]c12 [Compound 164] | < 0.02 | 5 to 50 | > 50 | > 50 | 0.02 to 0.2 | 0.02 to 0.2
